Key:
[1] = test system: HSV thymidine kinase (TK) gene in cells containing an entrapment mutation in the Hesx1 gene; experiment: TK gene loss, selection in gancyclovir; type: cell-based, mouse
[2] = test system: mouse embryonic stem cell clones, each containing a neomycin resistance gene (Neo) inserted by the GTR1.3 gene trap retrovirus; experiment: Carcinogen-induced LOH: frequency of colony formation in 2.0 mg/ml G418; type: cell-based; conditions: for fold increase of frequency of colony formation: 2 mg/ml G418 0.5 mM MNU
Description: Carcinogen-induced LOH was measured in a panel of 53 mouse embryonic stem cell clones, each containing a neomycin resistance gene (Neo) inserted into a different cellular gene (FIG. 9) by the GTR1.3 gene trap retrovirus. Gene entrapment by GTR1.3 involves selection for inserted Neo sequences that can splice to the 3′ ends of cellular genes (Lin et al.,). The disrupted genes were identified by sequencing Neo-gene fusion transcripts and were localized on the mouse genome. Previous studies have shown that cells homozygous for GTR1.3-induced mutations can be selected from heterozygous cells simply by selecting for resistance to higher concentrations of G418, a method first shown to select for homozygous mutations induced by gene targeting (15). Mitotic recombination appears to be the preferred mechanism of spontaneous LOH involving Neo genes inserted in ES cells (17) and LOH involving other genes and cell types in vivo (12, 13). LOH doubles the number of Neo genes per cell and thus allows moderately resistant cells to acquire resistance to higher concentrations of G418. The frequencies of spontaneous LOH measured at the 53 different sites ranged from 1.3×10^−5 to 1.2×10^−4 (Table 3), similar to those reported for other inserted neomycin resistance genes (15, 17) in ES cells and for loci such as TK and APRT in other cell types (12, 13).
A variety of chemical agents were tested for their ability to enhance the frequencies at which mutant cells survive in 2.0 mg/ml G418. Methyl-nitrosurea (MNU) is an alkylating agent that produces a variety of mono-methylated DNA adducts, hydroxyurea (HU) stalls DNA replication complexes, doxorubicin interferes with DNA synthesis, methothrexate is a competitive inhibitor of dihydrofolate reductase but is not genotoxic, diepoxybutane and mitomycin C induce inter-strand DNA crosslinks, UV irradiation causes intra- and inter-strand pyrimidine dimmers, and ethidium bromide intercalates between DNA strands to damage DNA (For additional information about these agents see http://toxnet.nlm.nih.gov and http://lisntweb.swan.ac.uk/cmgt/index.htm). […] The fold-increase for MNU and HU ranged from 39-123 and 18-68, respectively (Table 3). The optimal concentrations of each agent to stimulate colony formation with minimal toxicity (<5% loss of cell viability) were determined in advance (FIG. 13). […] Each of these agents was tested two or more times on at least 25 entrapment lines.
Serially diluted cells were plated onto 150 mm plates containing drug-free media and allowed to attach overnight. Unattached cells were removed and media containing the indicated concentrations of methyl-nitrosourea, hydroxyurea, ethidium bromide, doxorubicin, methotrexate, diepoxybutane, or mitomycin C was put onto cells for 4 hours (or cells were exposed to ultraviolet light in the absence of media and allowed to recover in drug-free media for 4 hours). Cells were then rinsed twice with drug-free media and selection media containing 0.0, 0.3, or 2.0 mg/ml G418 was put onto cells. After 12 days of selection, the number of colonies surviving was counted and the frequency of colony formation was determined by dividing the number of colonies obtained from 2.0 mg/ml G418 selection to that obtained from parallel experiments with 0.3 mg/ml G418 selection. TK gene loss was assessed following selection in media containing 2 μg/ml gancyclovir.
Table 3. The frequency of colony formation in high concentrations of G418. The frequency of colony formation is listed for all 53 clones examined. Frequency was determined by dividing the number of colonies surviving 2.0 mg/ml G418 selection to the number surviving parallel experiments with 0.3 mg/ml G418 selection, and is the average of at least 3 independent experiments for each clone. Standard deviations, which ranged from 5 to 70% of the mean values, have been omitted for clarity. […]

CN(N=O)C(N)=O [MNU, methyl-nitrosourea]
Ratio of Freq. TK loss ([1]; Table 2, C8TK1mN and C8TK1sN, Treatment none): 2.6
Ratio of Freq. TK loss ([1]; Table 2, C8TK1sN and C8TK1mN, Treatment MNU): 1.8
Freq. TK loss ([1]; Table 4, clone printed C8TK1mN (EL LOH induced by MNU), Treatment MNU): 4.5 × 10^−4
Freq. TK loss ([1]; Table 4, clone printed C8TK1mN (EL LOH induced by MNU, TK+ EL−/−), Treatment none): 1.3 × 10^−5
Freq. TK loss ([1]; Table 4, clone printed C8TK1sN (Spont. EL LOH), Treatment MNU): 2.9 × 10^−4
Ratio of Freq. TK loss ([1]; Table 4, printed C8TK1mN and C8TK1sN, Treatment none): 2.4
Ratio of Freq. TK loss ([1]; Table 4, printed C8TK1sN and C8TK1mN, Treatment MNU): 1.6
number of colonies surviving in high G418 ([2]; 0.5 mM MNU or 0.25 mM HU (FIG. 10)): dramatically increased
fold-increase of colonies surviving in high G418, range over clones ([2]; 0.5 mM MNU, Table 3 clones): 39-123 fold
fold increase of frequency of colony formation ([2]; clone b2p1-a5 (12C3)): (+61-fold)
fold increase of frequency of colony formation ([2]; clone b2p1-a9 (2H1)): (+53-fold)
fold increase of frequency of colony formation ([2]; clone b2p1-b4 (9E1)): (+53-fold)
fold increase of frequency of colony formation ([2]; clone b2p1-b9 (4B1)): (+59-fold)
fold increase of frequency of colony formation ([2]; clone b2p1-c6 (19A)): (+39-fold)
fold increase of frequency of colony formation ([2]; clone b2p1-d3 (19C1)): (+41-fold)
fold increase of frequency of colony formation ([2]; clone b2p1-d8 (4D2.3)): (+52-fold)
fold increase of frequency of colony formation ([2]; clone b2p1-d9 (7E3)): (+75-fold)
fold increase of frequency of colony formation ([2]; clone b2p1-d10 (9A1)): (+76-fold)
fold increase of frequency of colony formation ([2]; clone b2p1-e3 (4D2.3)): (+54-fold)
fold increase of frequency of colony formation ([2]; clone b2p1-e10 (19C1)): (+54-fold)
fold increase of frequency of colony formation ([2]; clone b2p1-f3 (17E1.3)): (+51-fold)
fold increase of frequency of colony formation ([2]; clone b2p1-f10 (3F2.1)): (+91-fold)
fold increase of frequency of colony formation ([2]; clone b2p1-f12 (1H5)): (+77-fold)
fold increase of frequency of colony formation ([2]; clone b2p1-h1 (7A2)): (+63-fold)
fold increase of frequency of colony formation ([2]; clone b2p1-h5 (1H5)): (+75-fold)
fold increase of frequency of colony formation ([2]; clone b2p1-h8 (6A3.3)): (+68-fold)
fold increase of frequency of colony formation ([2]; clone b3p1-h1 (18E2)): (+55-fold)
fold increase of frequency of colony formation ([2]; clone b3p3-a4 (4A5)): (+78-fold)
fold increase of frequency of colony formation ([2]; clone b3p3-a9 (4A5)): (+49-fold)
fold increase of frequency of colony formation ([2]; clone b3p3-b6 (3F1)): (+60-fold)
fold increase of frequency of colony formation ([2]; clone b3p3-c8 (14A3)): (+73-fold)
fold increase of frequency of colony formation ([2]; clone b3p3-c12 (5G2)): (+29-fold)
fold increase of frequency of colony formation ([2]; clone b3p3-d4 (1C3)): (+43-fold)
fold increase of frequency of colony formation ([2]; clone b3p3-d8 (1C2)): (+123-fold)
fold increase of frequency of colony formation ([2]; clone b3p3-d9 (4E2)): (+89-fold)
fold increase of frequency of colony formation ([2]; clone b3p3-g6 (10C2)): (+59-fold)
fold increase of frequency of colony formation ([2]; clone b3p3-g10 (4E1)): (+58-fold)
fold increase of frequency of colony formation ([2]; clone b3p3-h2 (19C1)): (+73-fold)
fold increase of frequency of colony formation ([2]; clone b3p3-h4 (5E2)): (+70-fold)
fold increase of frequency of colony formation ([2]; clone b3p3-h8 (19A)): (+105-fold)
fold increase of frequency of colony formation ([2]; clone b3p4-a1 (4A4)): (+69-fold)
fold increase of frequency of colony formation ([2]; clone b3p4-a5 (3B)): (+47-fold)
fold increase of frequency of colony formation ([2]; clone b3p4-b1 (3A2)): (+45-fold)
fold increase of frequency of colony formation ([2]; clone b3p4-b2 (11B1.3)): (+54-fold)
fold increase of frequency of colony formation ([2]; clone b3p4-b8 (4C6)): (+63-fold)
fold increase of frequency of colony formation ([2]; clone b3p4-b12 (3A1)): (+52-fold)
fold increase of frequency of colony formation ([2]; clone b3p4-c1 (17B3)): (+69-fold)
fold increase of frequency of colony formation ([2]; clone b3p4-c2 (8C3)): (+76-fold)
fold increase of frequency of colony formation ([2]; clone b3p4-c9 (15F2)): (+39-fold)
fold increase of frequency of colony formation ([2]; clone b3p4-c12 (17E2)): (+74-fold)
fold increase of frequency of colony formation ([2]; clone b3p4-d10 (14E5)): (+88-fold)
fold increase of frequency of colony formation ([2]; clone b3p4-d12 (1C3)): (+82-fold)
fold increase of frequency of colony formation ([2]; clone b3p4-e1 (2G3)): (+65-fold)
fold increase of frequency of colony formation ([2]; clone b3p4-e3 (15D3)): (+73-fold)
fold increase of frequency of colony formation ([2]; clone b3p4-e7 (12C1)): (+43-fold)
fold increase of frequency of colony formation ([2]; clone b3p4-f2 (4E1)): (+55-fold)
fold increase of frequency of colony formation ([2]; clone b3p4-f6 (7E3)): (+48-fold)
fold increase of frequency of colony formation ([2]; clone b3p4-f10 (8A4)): (+81-fold)
fold increase of frequency of colony formation ([2]; clone b3p4-g3 (1C3)): (+81-fold)
fold increase of frequency of colony formation ([2]; clone b3p4-g8 (10C1)): (+75-fold)
fold increase of frequency of colony formation ([2]; clone b3p4-g9 (2C2)): (+65-fold)
fold increase of frequency of colony formation ([2]; clone b3p4-h11 (8A1.1)): (+65-fold)
survival of mutant ES cells in media containing 2.0 mg/ml G418 ([2]; ES cells heterozygous for Xrcc5 entrapment mutation, 4 hours with 0.5 mM methyl-nitrosourea, 0.25 mM hydroxyurea or 100 ng/ml diepoxybutane): enhances the survival
overall extent of LOH induced ([2]; single exposure to non-toxic levels): ~1 % of the genome

Reference: patent publication US20100021895A1, “Vectors for Inducing Homozygous Mutations and Methods of Using Same” (priority 2006, published 2010)
